Experimental data: ChEMBL document CHEMBL1128371, “Synthesis and structure-activity relationships of side-chain-substituted analogs of the allylamine antimycotic terbinafine lacking the central amino function” (1995)
In brackets after ≈: the same amount, converted by molar mass.

What was measured:
[1] = test system: Aspergillus fumigatus; assay: In vitro antifungal activity against Aspergillus fumigatus; format: functional
[2] = test system: Sporothrix schenckii; assay: In vitro antifungal activity against Sporothrix schenck ii; format: functional
[3] = test system: Candida albicans; assay: In vitro antifungal activity against Candida albicans 124; format: functional
[4] = test system: Candida parapsilosis; assay: In vitro antifungal activity against Candida parapsilosis 39; format: functional; conditions: Lodderomyces parapsilosis
[5] = test system: Trichophyton benhamiae; assay: In vitro antifungal activity against Trichophyton mentagrophytes; format: functional, Arthroderma benhamiae
[6] = test system: Microsporum canis; assay: In vitro antifungal activity against Microsporum canis; format: functional

Row | MIC [1] | MIC [2] | MIC [3] | MIC [4] | MIC [5] | MIC [6] | SMILES
1 | > 100 µg/mL | > 100 µg/mL | > 100 µg/mL | > 100 µg/mL | 0.4 µg/mL (≈ 1.38 µM) | 3.1 µg/mL (≈ 10.7 µM) | CC(C/C=C/C#CC(C)(C)C)Cc1cccc2ccccc12 (stereo not given)
2 | > 50 µg/mL | > 50 µg/mL | > 50 µg/mL | > 50 µg/mL | > 50 µg/mL | > 50 µg/mL | CC(=O)NC(C)(C)C#C/C=C/CC(C)Cc1cccc2ccccc12 (stereo not given)
3 | > 100 µg/mL | > 100 µg/mL | > 100 µg/mL | > 100 µg/mL | 0.1 µg/mL (≈ 0.299 µM) | 0.8 µg/mL (≈ 2.39 µM) | COC(=O)C(C)(C)C#C/C=C/CC(C)Cc1cccc2ccccc12 (stereo not given)
4 | > 100 µg/mL | > 100 µg/mL | > 100 µg/mL | > 100 µg/mL | 0.4 µg/mL (≈ 1.33 µM) | 12.5 µg/mL (≈ 41.5 µM) | CC(C/C=C/C#CC(C)(C)C#N)Cc1cccc2ccccc12 (stereo not given)
5 | > 100 µg/mL | > 100 µg/mL | > 100 µg/mL | > 100 µg/mL | > 100 µg/mL | > 100 µg/mL | CC(C/C=C/C#CC(C)(C)C(N)=O)Cc1cccc2ccccc12 (stereo not given)
6 | 12.5 µg/mL (≈ 39.1 µM) | 3.1 µg/mL (≈ 9.7 µM) | 50 µg/mL (≈ 156 µM) | 6.25 µg/mL (≈ 19.6 µM) | 0.1 µg/mL (≈ 0.313 µM) | 0.2 µg/mL (≈ 0.626 µM) | CC(C/C=C/C#CC(C)(C)N(C)C)Cc1cccc2ccccc12 (stereo not given)
7 | 50 µg/mL (≈ 164 µM) | 25 µg/mL (≈ 81.8 µM) | > 50 µg/mL | > 50 µg/mL | 6.25 µg/mL (≈ 20.5 µM) | 25 µg/mL (≈ 81.8 µM) | CC(C/C=C/C#CC(C)(C)CN)Cc1cccc2ccccc12 (stereo not given)
8 | > 100 µg/mL | > 100 µg/mL | > 100 µg/mL | > 100 µg/mL | > 100 µg/mL | > 100 µg/mL | CC(C/C=C/C#CC(C)(C)C(=O)O)Cc1cccc2ccccc12 (stereo not given)
9 | > 100 µg/mL | 12.5 µg/mL | 25 µg/mL | 100 µg/mL | > 100 µg/mL | > 100 µg/mL | CC(C/C=C/C#CC(C)(C)[N+](C)(C)C)Cc1cccc2ccccc12 (stereo not given)
10 | > 100 µg/mL | > 100 µg/mL | > 100 µg/mL | > 100 µg/mL | 3.1 µg/mL (≈ 10.1 µM) | 100 µg/mL (≈ 326 µM) | CC(C/C=C/C#CC(C)(C)CO)Cc1cccc2ccccc12 (stereo not given)
11 | > 100 µg/mL | > 100 µg/mL | > 100 µg/mL | > 100 µg/mL | 3.1 µg/mL (≈ 10.6 µM) | > 100 µg/mL | CC(C/C=C/C#CC(C)(C)O)Cc1cccc2ccccc12 (stereo not given)
12 | > 100 µg/mL | > 100 µg/mL | > 100 µg/mL | > 100 µg/mL | 0.4 µg/mL (≈ 1.2 µM) | 1.6 µg/mL (≈ 4.8 µM) | CNC(=O)C(C)(C)C#C/C=C/CC(C)Cc1cccc2ccccc12 (stereo not given)
13 | > 100 µg/mL | > 100 µg/mL | > 100 µg/mL | > 100 µg/mL | > 100 µg/mL | > 100 µg/mL | CC(C/C=C/C#CC(C)(C)N(C)c1ccccc1)Cc1cccc2ccccc12 (stereo not given)
14 | 12.5 µg/mL (≈ 43.5 µM) | 1.6 µg/mL (≈ 5.57 µM) |  | 1.6 µg/mL (≈ 5.57 µM) | 0.05 µg/mL (≈ 0.174 µM) | 0.1 µg/mL (≈ 0.348 µM) | CN(C/C=C/c1ccccc1)Cc1cccc2ccccc12 [NAFTIFINE]
15 | 25 µg/mL (≈ 85.8 µM) | 12.5 µg/mL (≈ 42.9 µM) | > 100 µg/mL | > 100 µg/mL | 1.6 µg/mL (≈ 5.49 µM) | 3.1 µg/mL (≈ 10.6 µM) | CC(C/C=C/C#CC(C)(C)N)Cc1cccc2ccccc12 (stereo not given)

Row | SMILES | MIC [1] | MIC [2] | MIC [3] | MIC [4] | MIC [5] | MIC [6]
16 | CN(C/C=C/C#CC(C)(C)C)Cc1cccc2ccccc12 [TERBINAFINE] | 0.8 µg/mL (≈ 2.75 µM) | 0.4 µg/mL (≈ 1.37 µM) | 25 µg/mL (≈ 85.8 µM) | 0.8 µg/mL (≈ 2.75 µM) | 0.003 µg/mL (≈ 0.0103 µM) | 0.006 µg/mL (≈ 0.0206 µM)
